# Source: patent US9226912B2, “Acetyltanshinone IIA (ATA) as anticancer agent” (Nanyang Technological University, priority 2011, dated 2016)
# Columns and labels:
# [1] = system: HCT 15; experiment: IC50 of ATA at 72 h; type: cell-based; settings: Homo sapiens, HCT 15 colorectal adenocarcinoma
# Procedure: (§1) The cytotoxcitiy of ATA was assessed in cancer cell lines and normal cells. In order to do so the IC50 of ATA at 72 h in multiple cancer cell lines or normal cell lines including muscle and fibroblast cells was evaluated.
# [2] = system: HepG2; experiment: IC50 of ATA at 72 h; type: cell-based; settings: Homo sapiens, HepG2 liver cancer cells
# Procedure: as §1
# [3] = system: C2C12 (non-cancerous); experiment: IC50 of ATA at 72 h; type: cell-based; settings: Mus musculus, C2C12 myoblast (normal muscle cells)
# Procedure: as §1
# [4] = system: SK-N-SH; experiment: IC50 of ATA at 72 h; type: cell-based; settings: Homo sapiens, SK-N-SH neuroblastoma
# Procedure: as §1
# [5] = system: HCT 116; experiment: IC50 of ATA at 72 h; type: cell-based; settings: Homo sapiens, HCT 116 colorectal adenocarcinoma
# Procedure: as §1
# [6] = system: K-562; experiment: IC50 of ATA at 72 h; type: cell-based; settings: Homo sapiens, K562, K-562 leukaemia cells
# Procedure: as §1
# [7] = system: IMR-90 (non-cancerous); experiment: IC50 of ATA at 72 h; type: cell-based; settings: Homo sapiens, IMR-90 fibroblast (normal lung cells)
# Procedure: as §1
# [8] = system: HeLa; experiment: IC50 of ATA at 72 h; type: cell-based; settings: Homo sapiens, HeLa cervical cancer cells
# Procedure: as §1
# [9] = system: Caco2; experiment: IC50 of ATA at 72 h; type: cell-based; settings: Homo sapiens, Caco-2, Caco2 colorectal adenocarcinoma
# Procedure: as §1
# [10] = system: A549; experiment: IC50 of ATA at 72 h; type: cell-based; settings: Homo sapiens, A549 lung cancer cells
# Procedure: as §1
# [11] = system: MCF-7; experiment: Growth inhibition at 72 h by MTT assay
compound,measurement,setting,value
"CC(=O)Oc1c(OC(C)=O)c2c(C)coc2c2ccc3c(c12)CCCC3(C)C [ATA, 1,6,6-trimethyl-8,9-dihydro-10,11-diacetoxyl-7H-naphtho[1,2-g][1]benzofuran]",IC50,[1],560 ± 80 nM
same,IC50,[2],4270 ± 730 nM
same,IC50,[3],10200 ± 1440 nM
same,IC50,[4],1240 ± 120 nM
same,IC50,[5],2280 ± 490 nM
same,IC50,[6],1690 ± 340 nM
same,IC50,[7],15500 ± 710 nM
same,IC50,[8],690 ± 190 nM
same,IC50,[9],2500 ± 450 nM
same,IC50,[10],810 ± 130 nM
same,IC50,"[11]; Homo sapiens, MCF7, 72 h",1480 ± 240 nM
same,inhibition at 3.13 µM,"[11]; Homo sapiens, MCF7, 72 h, read-out: growth inhibition rate",94.7%
same,IC50 ratio of tamoxifen/ATA,"[11]; MCF-7 (ER+), 72 h",6.8
same,higher growth inhibition rate than tamoxifen,"[11]; MCF-7, three tested drug concentrations, 72 h, MTT",57-74%
same,less ATA needed than tamoxifen to inhibit 50% of ER-positive cell growth,"[11]; two ER-positive breast cancer cell lines, 72 h",6.7 fold
